Results from ChEMBL document CHEMBL3758094, “Thioxocoumarins Show an Alternative Carbonic Anhydrase Inhibition Mechanism Compared to Coumarins” (J Med Chem, 2016).

How the values were obtained:
Carbonic anhydrase 2 = Carbonic anhydrase 2 (Homo sapiens, UniProt P00918); experiment: Inhibition of human carbonic anhydrase 2 by Stopped-Flow CO2 Hydrase assay
Carbonic anhydrase 1 = Carbonic anhydrase 1 (Homo sapiens, UniProt P00915); experiment: Inhibition of human carbonic anhydrase 1 by Stopped-Flow CO2 Hydrase assay
Sequence of Carbonic anhydrase 1 (P00915 whole entry): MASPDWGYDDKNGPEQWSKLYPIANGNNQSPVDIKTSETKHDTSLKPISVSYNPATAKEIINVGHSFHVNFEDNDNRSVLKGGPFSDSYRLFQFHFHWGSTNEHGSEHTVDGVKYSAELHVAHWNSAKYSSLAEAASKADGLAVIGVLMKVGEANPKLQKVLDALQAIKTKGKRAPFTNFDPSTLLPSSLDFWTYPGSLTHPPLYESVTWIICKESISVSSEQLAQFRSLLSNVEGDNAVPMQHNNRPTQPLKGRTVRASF

Carbonic anhydrase 12 = Carbonic anhydrase 12 (Homo sapiens, UniProt O43570)
Sequence of Carbonic anhydrase 12 (O43570 whole entry): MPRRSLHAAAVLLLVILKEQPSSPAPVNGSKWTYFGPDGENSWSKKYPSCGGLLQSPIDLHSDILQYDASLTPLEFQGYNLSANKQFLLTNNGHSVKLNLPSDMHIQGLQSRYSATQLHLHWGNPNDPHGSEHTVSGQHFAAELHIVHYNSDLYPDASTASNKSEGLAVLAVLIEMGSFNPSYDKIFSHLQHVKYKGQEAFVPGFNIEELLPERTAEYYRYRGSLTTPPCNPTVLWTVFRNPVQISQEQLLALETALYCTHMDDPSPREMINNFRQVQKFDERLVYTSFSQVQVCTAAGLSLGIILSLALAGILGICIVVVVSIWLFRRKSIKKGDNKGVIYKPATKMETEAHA

Carbonic anhydrase 9 = Carbonic anhydrase 9 (Homo sapiens, UniProt Q16790)

Question: How did the Ki (Carbonic anhydrase 2) turn out when Oc1ccc2ccc(=S)oc2c1 was run?
Answer: The Ki was greater than 100 µM.

Question: For C=CCOc1ccc2oc(=O)ccc2c1, which Ki (Carbonic anhydrase 2) is on record?
Answer: The Ki was greater than 100 µM.

Question: How did the Ki (Carbonic anhydrase 2) turn out when CC(C)(C)[Si](C)(C)Oc1ccc2oc(=O)ccc2c1 was run?
Answer: Its Ki is greater than 100 µM.

Question: Which Ki (Carbonic anhydrase 2) does the source give for CC(C)(C)[Si](C)(C)Oc1ccc2oc(=S)ccc2c1 here?
Answer: Its Ki is greater than 100 µM.

Question: With Oc1ccc2oc(=S)ccc2c1 as the compound, how does the Ki (Carbonic anhydrase 2) read?
Answer: The Ki was 285 µM.

Question: With CC(C)(C)[Si](C)(C)Oc1ccc2ccc(=O)oc2c1 as the compound, how does the Ki (Carbonic anhydrase 2) read?
Answer: The Ki was greater than 100 µM.

Question: CC(C)(C)[Si](C)(C)Oc1ccc2ccc(=S)oc2c1 was tested. Which Ki (Carbonic anhydrase 2) did it give?
Answer: Its Ki is greater than 100 µM.

Question: For C=CCOc1cc(=O)oc2ccccc12, which Ki (Carbonic anhydrase 2) is on record?
Answer: The Ki was greater than 100 µM.

Question: For C=CCOc1ccc2oc(=S)ccc2c1, which Ki (Carbonic anhydrase 2) is on record?
Answer: Its Ki is greater than 100 µM.

Question: C=CCOc1ccc2ccc(=S)oc2c1 was tested. Which Ki (Carbonic anhydrase 2) did it give?
Answer: The Ki was greater than 100 µM.

Question: With C=CCOc1cc(=S)oc2ccccc12 as the compound, how does the Ki (Carbonic anhydrase 2) read?
Answer: Its Ki is greater than 100 µM.

Question: Which Ki (Carbonic anhydrase 1) does the source give for C#CCOc1ccc2ccc(=O)oc2c1 here?
Answer: Its Ki is 72 µM.

Question: And the Ki (Carbonic anhydrase 2)?
Answer: The Ki was greater than 100 µM.

Question: Which results are given for C#CCCCOc1ccc2ccc(=O)oc2c1?
Answer: Ki (Carbonic anhydrase 12): 0.37 µM; Ki (Carbonic anhydrase 1): 124 µM; Ki (Carbonic anhydrase 9): 0.83 µM; Ki (Carbonic anhydrase 2): > 100 µM

Question: Which results are given for O=c1ccc2ccc(OCc3cn(-c4ccccc4)nn3)cc2o1?
Answer: Ki (Carbonic anhydrase 1): > 200 µM; Ki (Carbonic anhydrase 9): 0.008 µM; Ki (Carbonic anhydrase 2): > 100 µM

Question: How did the Ki (Carbonic anhydrase 1) turn out when C#CCOc1ccc2ccc(=S)oc2c1 was run?
Answer: Its Ki is 950 µM.

Question: What about the Ki (Carbonic anhydrase 9) of the same compound?
Answer: Its Ki is 41.6 µM.

Question: And the Ki (Carbonic anhydrase 2)?
Answer: The Ki was greater than 100 µM.

Question: S=c1ccc2ccc(OCc3cn(-c4ccccc4)nn3)cc2o1 was tested. Which Ki (Carbonic anhydrase 1) did it give?
Answer: The Ki was greater than 200 µM.

Question: What about the Ki (Carbonic anhydrase 9) of the same compound?
Answer: The Ki was 0.004 µM.

Question: And the Ki (Carbonic anhydrase 2)?
Answer: The Ki was greater than 100 µM.

Question: How did the Ki (Carbonic anhydrase 1) turn out when S=c1ccc2ccccc2o1 was run?
Answer: Its Ki is greater than 100 µM.

Question: What about the Ki (Carbonic anhydrase 9) of the same compound?
Answer: Its Ki is 6.7 µM.

Question: And the Ki (Carbonic anhydrase 2)?
Answer: Its Ki is greater than 100 µM.

Question: How did the Ki (Carbonic anhydrase 1) turn out when S=c1ccc2ccccc2s1 was run?
Answer: Its Ki is greater than 100 µM.

Question: And the Ki (Carbonic anhydrase 2)?
Answer: Its Ki is greater than 100 µM.

Question: Which results are given for C#CCCCOc1ccc2ccc(=S)oc2c1?
Answer: Ki (Carbonic anhydrase 1): > 200 µM; Ki (Carbonic anhydrase 9): 0.22 µM; Ki (Carbonic anhydrase 2): > 100 µM

Question: With O=c1ccc2ccccc2s1 as the compound, how does the Ki (Carbonic anhydrase 1) read?
Answer: Its Ki is greater than 100 µM.

Question: And the Ki (Carbonic anhydrase 2)?
Answer: The Ki was greater than 100 µM.

Question: Which Ki (Carbonic anhydrase 12) does the source give for O=c1cc(O)c2ccccc2o1 [4-HYDROXYCOUMARINS] here?
Answer: Its Ki is 6.3 µM.

Question: And the Ki (Carbonic anhydrase 1)?
Answer: The Ki was 95 µM.

Question: And the Ki (Carbonic anhydrase 9)?
Answer: The Ki was 0.41 µM.

Question: What about the Ki (Carbonic anhydrase 2) of the same compound?
Answer: The Ki was greater than 100 µM.

Question: What does the source list for O=c1ccc2cc(O)ccc2o1 [6-HYDROXYCOUMARIN]?
Answer: Ki (Carbonic anhydrase 12): 0.68 µM; Ki (Carbonic anhydrase 1): > 100 µM; Ki (Carbonic anhydrase 9): 0.19 µM; Ki (Carbonic anhydrase 2): > 100 µM

Question: How did the Ki (Carbonic anhydrase 2) turn out when C=CCOc1ccc2ccc(=O)oc2c1 [7-ALLYLOXYCOUMARIN] was run?
Answer: Its Ki is greater than 100 µM.
